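GI50 marks 50% less growth. At the TGI there is no net growth.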
Columns and labels:
Test in all cases: inhibition of tumour cell growth, NCI panel, 384-well format
NCI/ADR-RES ovarian = test system: NCI/ADR-RES ovarian
MOLT-4 leukemia = test system: MOLT-4 leukemia
SN12C renal = test system: SN12C renal
OVCAR-3 ovarian = test system: OVCAR-3 ovarian
SK-OV-3 ovarian = test system: SK-OV-3 ovarian
NCI-H322M lung = test system: NCI-H322M lung
SF-539 CNS = test system: SF-539 CNS
SK-MEL-2 melanoma = test system: SK-MEL-2 melanoma
HL-60(TB) leukemia = test system: HL-60(TB) leukemia
BT-549 breast = test system: BT-549 breast
OVCAR-5 ovarian = test system: OVCAR-5 ovarian
NCI-H23 lung = test system: NCI-H23 lung
SNB-75 CNS = test system: SNB-75 CNS
PC-3 prostate = test system: PC-3 prostate
SK-MEL-5 melanoma = test system: SK-MEL-5 melanoma
DU-145 prostate = test system: DU-145 prostate
M14 melanoma = test system: M14 melanoma
UACC-257 melanoma = test system: UACC-257 melanoma
CAKI-1 renal = test system: CAKI-1 renal
CCRF-CEM leukemia = test system: CCRF-CEM leukemia
EKVX NSCLC = test system: EKVX NSCLC
KM12 colon = test system: KM12 colon
A549 NSCLC = test system: A549 NSCLC
OVCAR-8 ovarian = test system: OVCAR-8 ovarian
A498 renal = test system: A498 renal
U251 glioblastoma = test system: U251 glioblastoma
SF-268 CNS = test system: SF-268 CNS
NCI-H460 NSCLC = test system: NCI-H460 NSCLC
HCT-116 colon = test system: HCT-116 colon
MDA-MB-435 melanoma = test system: MDA-MB-435 melanoma
HOP-62 NSCLC = test system: HOP-62 NSCLC
MALME-3M melanoma = test system: MALME-3M melanoma
ACHN renal = test system: ACHN renal
NCI-H226 lung = test system: NCI-H226 lung
SNB-19 CNS = test system: SNB-19 CNS
K-562 leukemia = test system: K-562 leukemia
MDA-MB-231 breast = test system: MDA-MB-231 breast
MCF7 breast = test system: MCF7 breast
SR leukemia = test system: SR leukemia
RPMI-8226 leukemia = test system: RPMI-8226 leukemia
HT29 colon = test system: HT29 colon
SW-620 colon = test system: SW-620 colon
T-47D breast = test system: T-47D breast
TK-10 renal = test system: TK-10 renal
UO-31 renal = test system: UO-31 renal
HS 578T breast = test system: HS 578T breast
HCT-15 colon = test system: HCT-15 colon

CN1C(=O)[C@@H](CC2CCCC2)N(C2CCCC2)c2nc(Nc3cc(Cl)c(O)c(Cl)c3)ncc21
GI50 (NCI/ADR-RES ovarian): 3.46 µM
TGI (NCI/ADR-RES ovarian): 26.7 µM
GI50 (MOLT-4 leukemia): 1.67 µM
TGI (MOLT-4 leukemia): 3.06 µM
GI50 (SN12C renal): 10.4 µM
TGI (SN12C renal): > 100 µM
GI50 (OVCAR-3 ovarian): 4.55 µM
TGI (OVCAR-3 ovarian): 15.8 µM
GI50 (SK-OV-3 ovarian): 6.01 µM
TGI (SK-OV-3 ovarian): 45.2 µM
GI50 (NCI-H322M lung): 15.4 µM
TGI (NCI-H322M lung): 97.8 µM
GI50 (SF-539 CNS): 8.81 µM
TGI (SF-539 CNS): 27.2 µM
GI50 (SK-MEL-2 melanoma): 13.5 µM
TGI (SK-MEL-2 melanoma): 28 µM
GI50 (HL-60(TB) leukemia): 1.75 µM
TGI (HL-60(TB) leukemia): 3.17 µM
GI50 (BT-549 breast): 4.02 µM
TGI (BT-549 breast): 17.5 µM
GI50 (OVCAR-5 ovarian): 14.8 µM
TGI (OVCAR-5 ovarian): > 100 µM
GI50 (NCI-H23 lung): 4.5 µM
TGI (NCI-H23 lung): 35 µM
GI50 (SNB-75 CNS): 6.35 µM
TGI (SNB-75 CNS): 49 µM
GI50 (PC-3 prostate): 3.42 µM
TGI (PC-3 prostate): 20.2 µM
GI50 (SK-MEL-5 melanoma): 4.57 µM
TGI (SK-MEL-5 melanoma): 16.4 µM
GI50 (DU-145 prostate): 6.56 µM
TGI (DU-145 prostate): 64.7 µM
GI50 (M14 melanoma): 6.27 µM
TGI (M14 melanoma): 97.7 µM
GI50 (UACC-257 melanoma): 6 µM
TGI (UACC-257 melanoma): 25.4 µM
GI50 (CAKI-1 renal): 3.95 µM
TGI (CAKI-1 renal): 22.2 µM
GI50 (CCRF-CEM leukemia): 3.05 µM
TGI (CCRF-CEM leukemia): 8.14 µM
GI50 (EKVX NSCLC): 3.55 µM
TGI (EKVX NSCLC): 20 µM
GI50 (KM12 colon): 4.9 µM
TGI (KM12 colon): 24.6 µM
GI50 (A549 NSCLC): 4.89 µM
TGI (A549 NSCLC): 70.7 µM
GI50 (OVCAR-8 ovarian): 4.99 µM
TGI (OVCAR-8 ovarian): 60.5 µM
GI50 (A498 renal): 10.1 µM
TGI (A498 renal): 27.1 µM
GI50 (U251 glioblastoma): 5.66 µM
TGI (U251 glioblastoma): 19.1 µM
GI50 (SF-268 CNS): 11.2 µM
TGI (SF-268 CNS): 70 µM
GI50 (NCI-H460 NSCLC): 6.22 µM
TGI (NCI-H460 NSCLC): 19.4 µM
GI50 (HCT-116 colon): 3.9 µM
TGI (HCT-116 colon): 13.7 µM
GI50 (MDA-MB-435 melanoma): 7.55 µM
TGI (MDA-MB-435 melanoma): > 100 µM
GI50 (HOP-62 NSCLC): 12.1 µM
TGI (HOP-62 NSCLC): 33.1 µM
GI50 (MALME-3M melanoma): 4.41 µM
TGI (MALME-3M melanoma): 29.9 µM
GI50 (ACHN renal): 6.38 µM
TGI (ACHN renal): 26.2 µM
GI50 (NCI-H226 lung): 11.5 µM
TGI (NCI-H226 lung): 31.7 µM
GI50 (SNB-19 CNS): 4.67 µM
TGI (SNB-19 CNS): > 100 µM
GI50 (K-562 leukemia): 3.57 µM
TGI (K-562 leukemia): 15 µM
GI50 (MDA-MB-231 breast): 7.5 µM
TGI (MDA-MB-231 breast): > 100 µM
GI50 (MCF7 breast): 3.16 µM
TGI (MCF7 breast): 23.1 µM
GI50 (SR leukemia): 2.87 µM
TGI (SR leukemia): 8.95 µM
GI50 (RPMI-8226 leukemia): 1.8 µM
TGI (RPMI-8226 leukemia): 4.17 µM
GI50 (HT29 colon): 35.6 µM
TGI (HT29 colon): > 100 µM
GI50 (SW-620 colon): 7.08 µM
TGI (SW-620 colon): 40.7 µM
GI50 (T-47D breast): 2.38 µM
TGI (T-47D breast): > 100 µM
GI50 (TK-10 renal): 3.69 µM
TGI (TK-10 renal): 20.1 µM
GI50 (UO-31 renal): 4.75 µM
TGI (UO-31 renal): 23.2 µM
GI50 (HS 578T breast): 3.04 µM
TGI (HS 578T breast): 23.4 µM
GI50 (HCT-15 colon): 4.62 µM
TGI (HCT-15 colon): 21 µM

— PubChem BioAssay (NCI)
